Assay results reported in US20230212180A1, “SUBSTITUTED PYRAZINE COMPOUND, PHARMACEUTICAL COMPOSITION COMPRISING SAME, AND USE THEREOF” (Sichuan Kelun-Biotech Biopharmaceutical Co., Ltd., priority 2020, published 2023).
Read-outs that look alike come from different tables or passages of the source.

Assays:
[1] = test system: KYSE-520 cell (human esophageal squamous cell carcinoma cell); test: Inhibition of the proliferation activity of KYSE-520 cell (CellTiter-Glo); assay type: cell-based; conditions: 120 h, KYSE-520 cell proliferation, 5 days
Protocol: Test Example 2: Experiment on the Inhibition of the Proliferation Activity of KYSE-520 Cell (Human Esophageal Squamous Cell Carcinoma Cell)
cell: KYSE-520 (JCRB Cell Bank);
kit: CellTiter-Glo® Luminescent Cell Viability Assay Kit (Promega).
inoculation amount of cell: 1500 cells/well;
incubation conditions for compound: 37° C., 5% CO2;
incubation duration: 5 days;
detecting temperature: room temperature;
chemiluminescence detection using the BMG PHERAstar FS reader.
Cells were cultured in a medium containing 10% fetal bovine serum under the culture conditions of 37° C. and 5% CO2. An appropriate amount of cells were plated into a 96-well plate and cultured overnight in an incubator to allow the cells to adhere to the wall. The following day, the medium was removed and a complete medium containing a pre-diluted compound was added and incubated at 37° C. for 5 days. On the fifth day, the detection reagent CellTiter-Glo® was added into each well. Chemiluminescence was adopted to detect the relative luminescence units (RLUs) of the wells.
The result of a well containing cell-free medium, treated with CellTiter-Glo®, was obtained as the blank value. Cell viability (%)=(sample RLU−blank RLU)/(vehicle RLU−blank RLU)×100%, and maximum inhibition rate (%)=100%−cell viabilitymax. conc. (%). The half maximal inhibitory concentration (IC50) of the compound was calculated by fitting the curve according to the four-parameter logistic model.

hERG = target: T1, hERG (Homo sapiens, UniProt Q12809); test: Biochemical assay for hERG inhibition (Predictor hERG Fluorescence Polarization Assay Kit); assay type: binding
T1 construct: purchased ThermoFisher
T1 sequence (Q12809 whole entry): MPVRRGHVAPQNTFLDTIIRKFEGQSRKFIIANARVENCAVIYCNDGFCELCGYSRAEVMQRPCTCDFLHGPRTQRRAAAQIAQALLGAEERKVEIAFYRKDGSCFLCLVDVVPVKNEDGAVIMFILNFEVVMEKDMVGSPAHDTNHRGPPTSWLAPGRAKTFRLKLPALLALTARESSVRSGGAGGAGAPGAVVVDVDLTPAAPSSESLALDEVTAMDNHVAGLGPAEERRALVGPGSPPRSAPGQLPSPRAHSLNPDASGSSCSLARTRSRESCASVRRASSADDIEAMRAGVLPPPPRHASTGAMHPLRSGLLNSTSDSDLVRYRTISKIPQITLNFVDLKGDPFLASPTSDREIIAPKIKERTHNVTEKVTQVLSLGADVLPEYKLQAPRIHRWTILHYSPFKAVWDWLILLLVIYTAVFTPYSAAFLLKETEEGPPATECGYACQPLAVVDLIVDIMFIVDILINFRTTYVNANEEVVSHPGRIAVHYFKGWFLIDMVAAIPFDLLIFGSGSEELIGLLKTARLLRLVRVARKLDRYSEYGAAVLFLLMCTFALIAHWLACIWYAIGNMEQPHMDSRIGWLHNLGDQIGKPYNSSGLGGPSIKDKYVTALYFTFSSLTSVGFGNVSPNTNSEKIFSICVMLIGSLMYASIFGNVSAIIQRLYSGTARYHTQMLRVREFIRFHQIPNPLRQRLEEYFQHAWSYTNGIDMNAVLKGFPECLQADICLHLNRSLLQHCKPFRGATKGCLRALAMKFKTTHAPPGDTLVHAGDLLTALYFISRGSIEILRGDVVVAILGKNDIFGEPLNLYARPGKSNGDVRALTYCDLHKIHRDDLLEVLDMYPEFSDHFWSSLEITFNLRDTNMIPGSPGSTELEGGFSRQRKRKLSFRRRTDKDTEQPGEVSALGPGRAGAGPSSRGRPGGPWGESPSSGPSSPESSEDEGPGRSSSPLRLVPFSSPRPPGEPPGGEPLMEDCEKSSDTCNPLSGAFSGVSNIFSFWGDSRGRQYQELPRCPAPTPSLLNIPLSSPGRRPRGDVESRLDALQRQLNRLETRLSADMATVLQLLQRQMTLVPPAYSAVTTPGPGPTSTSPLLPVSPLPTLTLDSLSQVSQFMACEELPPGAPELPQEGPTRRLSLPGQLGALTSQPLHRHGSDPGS
Protocol: Test Example 3: Biochemical Assay for hERG Inhibition
kit: Predictor™ hERG Fluorescence Polarization Assay Kit (ThermoFisher) containing:
Compound E4031 as a positive control;
tracer concentration: 1 nM;
incubation duration: 2 hours;
parameters for microplate reader: BMG PHERAstar FS fluorescence microplate reader.
Test group: The test compounds at different concentrations were added into a microplate containing hERG cell membrane, and the tracer with a high affinity for hERG was then added into each well. The microplate was incubated at 25° C. for 2 hours before detection of the change in fluorescence polarization value (mP) (excitation wavelength: 540 nm; emission wavelength: 590 nm) using a multi-mode microplate reader.
Positive control group: The experimental method for the positive control group was the same as that for the test group, except that the test compound was replaced with 30 μM Compound E4031.
Blank control group: The experimental method for the blank control group was the same as that for the test group, except that the test compound was replaced with the hERG buffer and that the hERG cell membrane was not added.
Based on the data ratios, the percentage inhibition (%) of the compounds of the present disclosure against hERG at different concentrations was calculated and the range of the half maximal inhibitory concentration (IC50) of the compounds was determined. Percentage inhibition (%)=(1−(mP of the test compound−mP of the positive control group)/(mP of the blank control group−mP of the positive control group))×100%.

CYP1A2 = target: T2, CYP1A2 (Homo sapiens, UniProt P05177); test: Biochemical assay for CYP enzyme inhibition, P450-Glo CYP1A2 Screening System; assay type: in vitro ADME
T2 construct: purchased Promega
T2 sequence (P05177 1-516): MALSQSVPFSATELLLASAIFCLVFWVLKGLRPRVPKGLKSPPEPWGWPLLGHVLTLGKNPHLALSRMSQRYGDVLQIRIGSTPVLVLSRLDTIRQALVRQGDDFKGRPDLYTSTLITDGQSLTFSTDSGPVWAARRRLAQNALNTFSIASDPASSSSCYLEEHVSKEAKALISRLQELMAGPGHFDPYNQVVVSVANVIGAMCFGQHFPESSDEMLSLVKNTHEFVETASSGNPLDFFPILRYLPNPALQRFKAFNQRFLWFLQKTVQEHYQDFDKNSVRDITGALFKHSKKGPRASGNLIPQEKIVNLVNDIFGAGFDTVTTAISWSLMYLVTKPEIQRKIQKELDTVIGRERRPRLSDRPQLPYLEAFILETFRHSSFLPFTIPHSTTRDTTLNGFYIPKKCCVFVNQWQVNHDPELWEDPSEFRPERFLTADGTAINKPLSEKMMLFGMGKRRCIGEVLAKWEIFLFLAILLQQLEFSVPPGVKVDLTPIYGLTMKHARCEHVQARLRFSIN
Protocol: (§1) Test Example 5: Biochemical Assay for CYP Enzyme (Cytochrome P450) Inhibition
P450-Glo™ CYP1A2 Screening System, (Promega);
(§2) BMG PHERAstar FS Luminescent.
(§3) The experiments were carried out separately according to the instructions of the kits. The steps were as follows:
3.1. Inhibition Against CYP1A2:
(§4) Test group: The test compounds at different concentrations were added into a microplate, and Luciferin-ME (100 μM), K3PO4 (100 mM), and CYP1A2 (0.01 μmol/μL) were added into each well, and pre-incubated at room temperature for 10 min. Thereafter, an NADPH regeneration system was added. The mixture was reacted at room temperature for 30 min. Finally, an equal volume of detection buffer was added and incubated at room temperature for 20 min, followed by chemiluminescence detection.
(§5) Negative control group: The experimental method for the negative control group was the same as that for the test group, except that the test compound was not added.
Blank control group: The experimental method for the blank control group was the same as that for the test group, except that the test compound was not added and that CYP1A2 was replaced with CYP1A2 Membrance (0.01 μmol/μL).
(§6) Percentage inhibition=(1−(the chemiluminescent signal value of the test compound group at a certain test concentration−the chemiluminescent signal value of the blank control group)/(the chemiluminescent signal value of the negative control group−the chemiluminescent signal value of the blank control group))×100%.
(§7) When the percentage inhibition was between 30% and 80%, a single value or a value range of the half maximal inhibitory concentration (IC50) of the compound against the CYP enzyme was estimated based on the following equation: IC50=X×(1−percentage inhibition)/percentage inhibition, wherein X was the test concentration of the compound.

CYP3A4 = target: T3, CYP3A4 (Homo sapiens, UniProt P08684); test: Biochemical assay for CYP enzyme inhibition, P450-Glo CYP3A4 Screening System; assay type: in vitro ADME
T3 construct: purchased Promega
T3 sequence (P08684 whole entry): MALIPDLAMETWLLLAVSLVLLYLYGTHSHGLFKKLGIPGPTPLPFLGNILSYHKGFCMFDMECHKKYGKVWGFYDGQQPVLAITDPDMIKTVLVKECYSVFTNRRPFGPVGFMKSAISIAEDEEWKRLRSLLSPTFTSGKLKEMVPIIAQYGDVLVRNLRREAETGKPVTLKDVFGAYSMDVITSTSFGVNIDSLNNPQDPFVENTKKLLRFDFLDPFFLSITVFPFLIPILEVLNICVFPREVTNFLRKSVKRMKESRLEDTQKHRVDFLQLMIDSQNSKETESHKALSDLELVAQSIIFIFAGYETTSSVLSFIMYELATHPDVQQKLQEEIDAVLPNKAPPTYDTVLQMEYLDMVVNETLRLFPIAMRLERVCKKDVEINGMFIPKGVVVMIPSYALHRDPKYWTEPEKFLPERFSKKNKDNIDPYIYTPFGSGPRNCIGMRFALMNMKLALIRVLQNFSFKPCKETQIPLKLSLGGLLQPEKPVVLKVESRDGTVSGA
Protocol: as §1
P450-Glo™ CYP3A4 Screening System, (Promega).
as §2, §3
3.3. Inhibition Against CYP3A4:
as §4, with “Luciferin-IPA ([…]),” for “Luciferin-ME (100 μM),”, “CYP3A4 (2 nM)” for “CYP1A2 (0.01 μmol/μL)”
as §5
Blank control group: The experimental method for the blank control group was the same as that for the test group, except that the test compound was not added and that CYP3A4 was replaced with CYP3A4 Membrance (2 nM).
as §6, §7

[2] = estimated from percentage inhibition, read-out: IC50 (μM) CYP3A4
[3] = estimated from percentage inhibition, read-out: IC50 (μM) CYP1A2

| Structure (SMILES) | IC50 [1] [µM] | IC50 (hERG) [µM] | IC50 (CYP1A2) [µM] | IC50 (CYP3A4; [2]) [µM] | IC50 (CYP3A4) [µM] | IC50 (CYP1A2; [3]) [µM] |
| --- | --- | --- | --- | --- | --- | --- |
| C[C@@H]1OCC2(CCN(c3ncc(Sc4ccnc(N5CCCC5CO)c4Cl)nc3CO)CC2)[C@@H]1N (some centres unmarked) [Example 2] | 0.1 | > 10 | > 10 | > 10 | – | – |
| C[C@@H]1OCC2(CCN(c3ncc(Sc4ccnc(N5CC(CS(C)(=O)=O)C5)c4Cl)nc3CO)CC2)[C@@H]1N [Example 26, (3-((3S,4S)-4-amino-3-methyl-2-oxa-8-azaspiro[4.5]decan-8-yl)-6-(3-chloro-2-(3-(methylsulfonylmethyl)azetidin-1-yl)pyridin-4-ylthio)pyrazin-2-yl)methanol] | 0.03 | > 10 | > 10 | – | > 10 | – |
| CC(O)C1CN(c2nccc(Sc3cnc(N4CCC5(CC4)CO[C@@H](C)[C@H]5N)c(CO)n3)c2Cl)C1 (stereo partly drawn) [Example 17, 1-(1-(4-(5-((3S,4S)-4-amino-3-methyl-2-oxa-8-azaspiro[4.5]decan-8-yl)-6-(hydroxymethyl)pyrazin-2-ylthio)-3-chloropyridin-2-yl)azetidin-3-yl)ethan-1-ol] | 0.03 | – | > 10 | – | > 10 | – |
| C[C@@H]1OCC2(CCN(c3ncc(Sc4ccnc(N5CC(CC#N)C5)c4Cl)nc3CO)CC2)[C@@H]1N [Example 5, 2-(1-(4-(5-((3S,4S)-4-amino-3-methyl-2-oxa-8-azaspiro[4.5]decan-8-yl)-6-(hydroxymethyl)pyrazin-2-ylthio)-3-chloropyridin-2-yl)azetidin-3-yl)acetonitrile] | 0.06 | – | > 10 | – | > 10 | – |
| COCC1CN(c2nccc(Sc3cnc(N4CCC5(CC4)CO[C@@H](C)[C@H]5N)c(CO)n3)c2Cl)C1 [Example 21, (3-((3S,4S)-4-amino-3-methyl-2-oxa-8-azaspiro[4.5]decan-8-yl)-6-(3-chloro-2-(3-(methoxymethyl)azetidin-1-yl)pyridin-4-ylthio)pyrazin-2-yl)methanol] | 0.11 | – | > 10 | – | > 10 | – |
| CC(C)(O)C1CN(c2nccc(Sc3cnc(N4CCC5(CC4)Cc4ccccc4[C@H]5N)c(CO)n3)c2Cl)C1 [Example 23, (S)-2-(1-(4-(5-(1-amino-1,3-dihydrospiro[indene-2,4′-piperidin]-1′-yl)-6-(hydroxymethyl)pyrazin-2-ylthio)-3-chloropyridin-2-yl)azetidin-3-yl)propan-2-ol] | 0.14 | – | – | > 10 | – | > 10 |
| C[C@@H]1OCC2(CCN(c3ncc(Sc4ccnc(N5CC(CO)C5)c4Cl)nc3CO)CC2)[C@@H]1N [Example 6, (3-((3S,4S)-4-amino-3-methyl-2-oxa-8-azaspiro[4.5]decan-8-yl)-6-(3-chloro-2-(3-(hydroxymethyl)azetidin-1-yl)pyridin-4-ylthio)pyrazin-2-yl)methanol] | 0.04 | – | > 10 | – | > 10 | – |
| C[C@@H]1OCC2(CCN(c3ncc(Sc4ccnc(N5CC(C(C)(C)O)C5)c4F)nc3CO)CC2)[C@@H]1N [Example 40, 2-(1-(4-(5-((3S,4S)-4-amino-3-methyl-2-oxa-8-azaspiro[4.5]decan-8-yl)-6-(hydroxymethyl)pyrazin-2-ylthio)-3-fluoropyridin-2-yl)azetidin-3-yl)propan-2-ol] | – | > 10 | > 10 | – | > 10 | – |
| CC(C)(O)C1CN(c2nccc(Sc3cnc(N4CCC5(CC4)COC[C@H]5N)c(CO)n3)c2Cl)C1 [Example 13, (S)-2-(1-(4-(5-(4-amino-2-oxa-8-azaspiro[4.5]decan-8-yl)-6-(hydroxymethyl)pyrazin-2-ylthio)-3-chloropyridin-2-yl)azetidin-3-yl)propan-2-ol] | – | > 10 | > 10 | > 10 | – | – |
| CC(C)(O)C1CN(c2nccc(Sc3cnc(N4CCC5(CC4)Oc4ccccc4[C@H]5N)c(CO)n3)c2Cl)C1 [Example 22, (R)-2-(1-(4-(5-(3-amino-3H-spiro[benzofuran-2,4′-piperidin]-1′-yl)-6-(hydroxymethyl)pyrazin-2-ylthio)-3-chloropyridin-2-yl)azetidin-3-yl)propan-2-ol] | 0.05 | – | – | > 10 | – | > 10 |
| Cc1nc(N2CCC3(CC2)CO[C@@H](C)[C@H]3N)c(CO)nc1Sc1ccnc(N2CCCC2CO)c1Cl (some centres unmarked) [Example 1] | 0.36 | – | > 10 | – | > 10 | – |
| CC(C)(O)C1CN(c2nccc(Sc3cnc(N4CCC5(CC4)Cc4ncccc4[C@H]5N)c(CO)n3)c2Cl)C1 [Example 43, (S)-2-(1-(4-(5-(5-amino-5,7-dihydrospiro[cyclopenta[b]pyridine-6,4′-piperidin]-1′-yl)-6-(hydroxymethyl)pyrazin-2-ylthio)-3-chloropyridin-2-yl)azetidin-3-yl)propan-2-ol] | 0.04 | – | – | > 10 | – | > 10 |
| Cc1nc(N2CCC3(CC2)CO[C@@H](C)[C@H]3N)c(CO)nc1Sc1ccnc(N2CC(CS(C)(=O)=O)C2)c1Cl [Example 25, (3-((3S,4S)-4-amino-3-methyl-2-oxa-8-azaspiro[4.5]decan-8-yl)-6-(3-chloro-2-(3-(methylsulfonylmethyl)azetidin-1-yl)pyridin-4-ylthio)-5-methylpyrazin-2-yl)methanol] | – | > 10 | > 10 | – | > 10 | – |
| C[C@@H]1OCC2(CCN(c3cnc(Sc4ccnc(N5CC(C(C)(C)O)C5)c4Cl)cn3)CC2)[C@@H]1N [Example 28, 2-(1-(4-(5-((3S,4S)-4-amino-3-methyl-2-oxa-8-azaspiro[4.5]decan-8-yl)pyrazin-2-ylthio)-3-chloropyridin-2-yl)azetidin-3-yl)propan-2-ol] | – | > 10 | > 10 | – | > 10 | – |
